Where “and” joins values, the source holds several entries; their conditions need not be identical. Equal entries are not always repeated. Marks after values point to notes of the source that are not given here.
What was measured:
[1] = biological target: benzodiazepine receptor (GABAA receptor complex), cerebral cortex membranes; assay: In vitro inhibition of 3H-flunitrazepam (3H-FNM) binding; details: inhibition of specific 3H-FNM (1 nM) binding, rat cerebral cortex membranes
Protocol: The GABA recognition site and the benzodiazepine modulatory unit can selectively be labelled with ^3H-muscimol and ^3H-flunitrazepam, respectively.
13A: In vitro inhibition of ^3H-flunitrazepam (^3H-FNM) binding
Preparations are performed at 0-4° C. unless otherwise indicated. Cerebral cortex from male Wistar rats (150-200 g) is homogenised for 5-10 sec in 20 ml Tris-HCl (30 mM, pH 7.4) using an Ultra-Turrax homogeniser. The suspension is centrifuged at 27,000× g for 15 min and the pellet is washed three times with buffer (centrifuged at 27,000× g for 10 min). The washed pellet is homogenized in 20 ml of buffer and incubated on a water bath (37° C.) for 30 min to remove endogenous GABA and then centrifuged for 10 min at 27,000× g. The pellet is then homogenized in buffer and centrifuged for 10 min at 27,000× g. The final pellet is resuspended in 30 ml buffer and the preparation is frozen and stored at −20° C.
The membrane preparation is thawed and centrifuged at 2° C. for 10 min at 27,000× g. The pellet is washed twice with 20 ml 50 mM Tris-citrate, pH 7.1 using an Ultra-Turrax homogeniser and centrifuged for 10 min at 27,000× g. The final pellet is resuspended in 50 mM Tris-citrate, pH 7.1 (500 ml buffer per g of original tissue), and then used for binding assays. Aliquots of 0.5 ml tissue are added to 25 μl of test solution and 25 μl of ^3H-FNM (1 nM, final concentration), mixed and incubated for 40 min at 2° C., Non-specific binding is determined using Clonazepam (1 μM, final concentration). After incubation the samples are added 5 ml of ice-cold buffer and poured directly onto Whatman GFIC glass fibre filters under suction and immediately washed with 5 ml ice-cold buffer. The amount of radioactivity on the filters is determined by conventional liquid scintillation counting. Specific binding is total binding minus non-specific binding.
The test value will be given as IC50 (the concentration (μM) of the test substance which inhibits the specific binding of ^3H-FNM by 50%). [formula]
Co is specific binding in control assays, and
Cx is the specific binding in the test assay.
(The calculations assume normal mass-action kinetics).

[2] = tested on: clonic convulsions induced by pentylenetetrazol (PTZ); assay: PTZ clonic convulsions; format: in vivo; details: female NMRI mice; for ED100: i.v., dose increasing the PTZ threshold to 100 mg PTZ/kg (linear regression); for ptz threshold at 30 mg/kg: test substance 30 mg/kg i.v., PTZ infused after 5 min, vehicle threshold 37-39 mg PTZ/kg
Protocol: The purpose of this test is to show antagonism of clonic convulsions induced by pentylenetetrazol (PTZ). PTZ induces clonic convulsions in mice after i.v. infusion. Antagonism of PTZ-induced convulsions is a measure for the agonistic character of ligands for the benzodiazepine recognition site.
Female NMRI mice (Bomholdtgaard, Ry), 20 g, 6 mice in each group are administered i.v. with vehicle or test substance. After five minutes the PTZ-solution is infused intravenously at a speed of 0.7 ml/minute through a cannula placed in the tail vein. The time from initiation of the infusion to appearance of clonic convulsions is recorded.
The dose of PTZ required for inducing convulsion in each mouse is calculated as PTZ/kg body weight. Means ±sd for each experimental group of 6 mice is calculated. ED100 is calculated by linear regression expressing the dose increasing the PTZ threshold to 100 mg PTZ/kg.
The threshold of vehicle treated controls is in the range of 37-39 mg PTZ/kg. As a control in each series of experiments PTZ is infused into 6 vehicle treated mice.

[3] = tested on: GABAA receptor-ion channel complex (forebrain); assay: In vivo inhibition of 3H-FNM binding; design: species or system mouse; details: female NMRI mice, test substance i.v., inhibition of specific [3H]FNM binding in forebrain
Protocol: 13B: In vivo inhibition of ^3H-FNM binding
[^3H]FNM can also be used for in vivo receptor labelling studies in mouse. Accumulation of [^3H]FNM binding will occur all over the brain as GABAA receptors are widely distributed.
All test substances used are solutions prepared in 10% TWEEN 80. Groups of three female NMRI mice (25 g) are injected i.v. via the tail vein with 5.0 μCi of [3H]FNM in 0.2 ml saline. Fifteen min after injection with [^3H]FNM the test substance is administered i.v. Twenty min after injection with [^3H]FNM, mice are killed by decapitation, the forebrains rapidly excised and homogenized in 12 ml of ice-cold 50 mM Tris-citrate, pH 7.1 using an Ultra-Turrax homogenizer. Three aliquots of 1 ml are immediately filtered through GF/C glass fibre filters and washed with 2×5 ml of ice-cold buffer. The amounts of radioactivity on the filters and in 200 μl of the homogenate are determined by conventional scintillation counting. Groups of untreated mice serves as controls. To determine non-specific binding groups of mice are injected with Clonazepam (25 mg/kg) i.p. 10 min before [3H]FNM injection. Specific binding is the amount of binding in controls minus the amount of binding in Clonazepam treated mice.
The ED50 value is determined from dose response curves. […] [formula]
where Co is specific binding in controls and Cx is the specific binding in mice treated with test substance.

[4] = tested on: pigs; assay: Evaluation of efficacy: anaesthesia after bolus injection; format: in vivo; details: pigs 25-30 kg; for Induction Time / Maintained anaesthesia / Normalising time following awakening: i.v. bolus, dose per compound as in Table 10 (0.03-3 mg/kg)
Protocol: Aqueous solutions of the test substances (50 mg/ml isotonic glucose) were administered to pigs (25-30 kg) as bolus injections. The actual dose of each substance is included in the table below.
These observations are compiled in Table 10 below. This table also provides comparative data for compounds of the prior art (WO 98/17651).

SMILES | IC50 [1] [nM] | ED100 [2] [mg/kg] | ptz threshold at 30 mg/kg [2] [mg/kg] | In vivo binding ED50 [3] [mg/kg] | melting point | Induction Time [4] [min] | Maintained anaesthesia [4] | Normalising time following awakening [4] [min] | Observation on anaesthesia (footnote to Maintained anaesthesia) ([4]; bolus 3 mg/kg)
CCOC(=O)CN1CCC(c2cccc(-n3cnc4cc(-c5ccoc5)ccc43)c2)CC1 [Compound 7g, 5-(3-Furanyl)-1-(3-(1-ethoxycarbonylmethyl-4-piperidyl)-phenyl)-benzimidazole] | 0.9 | 1.2 | 200 | 1.4 | 114.5 to 115 °C and 114 to 115 °C |  |  |  | 
CCOC(=O)CN1CCN(c2cccc(-n3cnc4cc(C(=O)OCCOC)ccc43)c2)CC1 [Compound 1b, 2-Methoxyethyl 1-(3-(4-(ethoxy-carbonyl-methyl)-1-piperazinyl)-phenyl)-benzimidazole-5-carboxylate] | 260 | 1.6 | 200 | 0.9 |  | 1.3 | 10^ min. | 15 | 
COC(=O)c1cn(-c2cccc(-n3cnc4cc(-c5ccoc5)ccc43)c2)cn1 [Compound 7c, 5-(3-Furanyl)-1-(3-(4-methoxycarbonyl-1-imidazolyl)-phenyl)-benzimidazole] | 0.7 | 20 | 110 | 0.43 | 221 to 223 °C |  |  |  | 
CC(=O)N1CCN(CCOC(=O)c2cccc(-n3cnc4cc(-c5ccoc5)ccc43)c2)CC1 [Compound 7j, 2-(1-Acetyl-4-piperazinyl)-ethyl 3-(5-(3-furanyl)-1-benzimidazolyl)-benzoate] | 2.8 | 13 | 170 | 1.9 |  | 0.5 | 8^a min. | 20 | ^aUneasy sleep

— patent US6649609B2, “Benzimidazole derivatives and pharmaceutical compositions comprising these compounds” (Neurosearch A/S, priority 1999, dated 2003)
